Results taken from patent EP3298022B1, “NOVEL ANNELATED PHENOXYACETAMIDES” (Boehringer Ingelheim International GmbH, priority 2015, dated 2017).

What was measured:
ENaC = molecular target: T1, ENaC (Mus musculus, UniProt Q61180+Q9WU38+Q9WU39); assay: Ussing Chamber assay (short circuit current, amiloride sensitive I_SC); type: cell-based; conditions: Mouse kidney M-1 cells, apical administration, 37°C
T1 construct: Mouse kidney M-1 cells were cultivated in DMEM containing 5% FCS and 5µM dexamethasone; endogenous in cells; host or cells: Mouse kidney M-1 cells (cortical collecting duct line), dexamethasone-treated, on transwell filters
T1 sequence (Q61180 1-699): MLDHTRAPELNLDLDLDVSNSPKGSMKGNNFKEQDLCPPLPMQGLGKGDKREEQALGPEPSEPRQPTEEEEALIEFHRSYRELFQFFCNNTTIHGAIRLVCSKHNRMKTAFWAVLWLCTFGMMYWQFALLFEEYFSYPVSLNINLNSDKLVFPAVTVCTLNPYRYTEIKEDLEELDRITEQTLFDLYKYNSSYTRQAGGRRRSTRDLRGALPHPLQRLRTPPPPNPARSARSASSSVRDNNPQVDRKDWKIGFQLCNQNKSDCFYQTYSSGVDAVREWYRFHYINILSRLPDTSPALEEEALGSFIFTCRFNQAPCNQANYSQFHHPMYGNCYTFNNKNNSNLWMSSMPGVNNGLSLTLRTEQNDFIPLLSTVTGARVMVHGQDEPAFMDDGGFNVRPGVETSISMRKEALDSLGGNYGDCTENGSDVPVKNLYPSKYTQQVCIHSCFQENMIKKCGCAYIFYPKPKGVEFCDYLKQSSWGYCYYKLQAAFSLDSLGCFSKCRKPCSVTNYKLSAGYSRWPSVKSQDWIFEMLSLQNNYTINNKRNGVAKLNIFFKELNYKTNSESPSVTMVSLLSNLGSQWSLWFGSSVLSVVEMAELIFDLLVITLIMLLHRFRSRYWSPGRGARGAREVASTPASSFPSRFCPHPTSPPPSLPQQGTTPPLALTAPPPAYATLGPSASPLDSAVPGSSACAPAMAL
T1 sequence (Q9WU38 1-638): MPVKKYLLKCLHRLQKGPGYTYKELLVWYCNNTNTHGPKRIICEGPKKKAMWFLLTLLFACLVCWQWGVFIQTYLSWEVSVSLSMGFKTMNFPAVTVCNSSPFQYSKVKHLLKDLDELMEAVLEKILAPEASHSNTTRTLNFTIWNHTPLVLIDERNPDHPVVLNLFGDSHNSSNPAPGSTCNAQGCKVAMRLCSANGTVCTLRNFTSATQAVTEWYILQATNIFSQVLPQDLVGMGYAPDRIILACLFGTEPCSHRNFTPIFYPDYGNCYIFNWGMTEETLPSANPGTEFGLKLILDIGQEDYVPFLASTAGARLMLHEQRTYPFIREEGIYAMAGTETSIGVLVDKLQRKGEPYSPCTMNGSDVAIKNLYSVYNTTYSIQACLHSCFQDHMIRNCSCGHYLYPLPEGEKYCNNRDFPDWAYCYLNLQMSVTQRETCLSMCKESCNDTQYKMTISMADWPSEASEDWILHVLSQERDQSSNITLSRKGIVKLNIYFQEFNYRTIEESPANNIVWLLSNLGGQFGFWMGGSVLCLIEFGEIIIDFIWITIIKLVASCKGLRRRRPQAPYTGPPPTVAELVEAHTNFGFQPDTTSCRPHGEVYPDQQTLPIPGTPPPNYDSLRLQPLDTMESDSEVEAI
T1 sequence (Q9WU39 1-655): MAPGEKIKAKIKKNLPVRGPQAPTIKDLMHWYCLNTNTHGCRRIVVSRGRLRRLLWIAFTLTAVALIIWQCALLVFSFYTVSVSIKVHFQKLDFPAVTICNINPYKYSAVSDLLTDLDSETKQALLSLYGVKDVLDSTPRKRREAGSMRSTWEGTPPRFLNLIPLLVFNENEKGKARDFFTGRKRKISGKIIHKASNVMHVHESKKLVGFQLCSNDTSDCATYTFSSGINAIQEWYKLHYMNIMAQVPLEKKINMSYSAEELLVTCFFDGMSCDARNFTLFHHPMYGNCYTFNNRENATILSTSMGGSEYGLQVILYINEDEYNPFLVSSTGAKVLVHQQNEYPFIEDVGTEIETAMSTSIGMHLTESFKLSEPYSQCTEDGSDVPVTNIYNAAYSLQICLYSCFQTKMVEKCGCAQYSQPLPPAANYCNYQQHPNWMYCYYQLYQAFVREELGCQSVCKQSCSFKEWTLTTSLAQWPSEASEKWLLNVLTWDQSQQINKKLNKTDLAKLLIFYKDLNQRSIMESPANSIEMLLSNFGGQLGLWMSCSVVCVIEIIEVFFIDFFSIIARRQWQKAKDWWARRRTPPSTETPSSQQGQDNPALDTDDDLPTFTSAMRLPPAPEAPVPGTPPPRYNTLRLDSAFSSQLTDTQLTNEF
Protocol: The IC50 values of the example compounds given above were determined in the Ussing Chamber assay.
Ussing Chamber: Mouse kidney M-1 cells were cultivated in DMEM containing 5% FCS and 5µM dexamethasone for 10 to 12 days on polyester transwell filters. Filters were inserted into a teflon-coated well-plate which fit into the ussing chamber system. Prior to measurement the medium of M-1 cells was replaced with Caco-2 transport buffer (Invitrogen, Germany). During measurements, the Ussing chamber temperature was kept at 37°C. Short circuit currents (I_sc) were measured in the voltage-clamp mode with the software package Lab View for data acquisition and analysis. The transepithelial electrical resistance (TEER) was determined by the application of voltage steps of ±5mV every 5 sec. Compounds were administered at a final concentration of 3µM or at increasing concentrations (1-3-10µM) to the apical solution. At the end of each experiment the amiloride sensitive I_SC was measured by adding 3µM amiloride to the apical compartment. Results are expressed as inhibition in percent of the amiloride effect or as IC50.

in vitro = in vitro ADME; conditions: human, pH 7.4, 37°C, 10 µM compound; for Papp A→B: apical-to-basal; for Papp B→A: basal-to-apical
Protocol: Permeability measurements across polarized, confluent CALU-3 cell monolayers grown on permeable filter supports are used to provide information on the potential of a compound to pass the lung epithelium. Apparent permeability coefficients (Papp) of the compounds across the CALU-3 cell monolayers are measured (pH 7.4, 37°C) in apical-to-basal (AB) and basal-to-apical (BA) transport direction.
CALU-3 cells (1-2 x 10^5 cells/1 cm^2 area) are seeded on filter inserts (Costar transwell polycarbonate filters, 0.4 µm pore size) and cultured (for 10 - 12 days DMEM) until tight monolayers are formed. Compounds of interest are dissolved in appropriate solvent (DMSO, 10 mM stock solution). Stock solutions are diluted with HTP-4 buffer (128.13 mM NaCl, 5.36 mM KCl, 1 mM MgSO4, 1.8 mM CaCl2, 4.17 mM NaHCO3, 1.19 mM Na2HPO4 x 7H2O, 0.41 mM NaH2PO4xH2O, 15 mM HEPES, 20 mM glucose, 0.25 % BSA, pH 7.4) to prepare the transport solutions (10 µM compound, final DMSO <= 0.5 %). The transport solution (TL) is applied to the apical or basolateral donor side for measuring A-B or B-A permeability (3 filter replicates), respectively. The receiver side contains the same buffer as the donor side. After 30 min of accommodation, samples are collected at the start t0 = 0 min and at the end of the experiment tn = 90 min from the donor and at 0, 30, 60, and 90 min also from the receiver chamber. Volume removed is replenished by HTP-4 buffer. The compound concentration in the samples is measured by HPLC-MS/MS or scintillation counting. The permeability coefficient (Papp) and efflux ratio are calculated according to: Papp [cm/s] = (concentration receiver [nM] * volume receiver [mL]/time interval [sec])*(1/filter area)*(1/donor concentration [nM]).

SMILES	IC50 (ENaC)	Papp A→B (in vitro)	Papp B→A (in vitro)
CCn1c(CNC(=O)c2nc(Cl)cnc2N)[n+](CC)c2ccc(OCC(=O)NCCCN)cc21 [Example 2.01]	1 nM	0.2 ×10⁻⁶ cm/s	0.5 ×10⁻⁶ cm/s
CCOCCN1CCC(NC(=O)COc2ccc3c(c2)n(CC)c(CNC(=O)c2nc(Cl)cnc2N)[n+]3CC)CC1 [Example 2.07]	3 nM		
CC[n+]1c(CNC(=O)c2nc(Cl)cnc2N)n(CC2CCCO2)c2cc(OCC(=O)N3CC[S+]([O-])CC3)ccc21 (stereo not drawn) [Example 1.01]		0.8 ×10⁻⁶ cm/s	0.3 ×10⁻⁶ cm/s
